Data: ChEMBL document CHEMBL4507276 (2021)

Key:
[1] = target: T1, Mitogen-activated protein kinase kinase kinase 7 (Homo sapiens) (UniProt O43318); details: Compound concentration 1000.0 nM
T1 sequence (whole entry): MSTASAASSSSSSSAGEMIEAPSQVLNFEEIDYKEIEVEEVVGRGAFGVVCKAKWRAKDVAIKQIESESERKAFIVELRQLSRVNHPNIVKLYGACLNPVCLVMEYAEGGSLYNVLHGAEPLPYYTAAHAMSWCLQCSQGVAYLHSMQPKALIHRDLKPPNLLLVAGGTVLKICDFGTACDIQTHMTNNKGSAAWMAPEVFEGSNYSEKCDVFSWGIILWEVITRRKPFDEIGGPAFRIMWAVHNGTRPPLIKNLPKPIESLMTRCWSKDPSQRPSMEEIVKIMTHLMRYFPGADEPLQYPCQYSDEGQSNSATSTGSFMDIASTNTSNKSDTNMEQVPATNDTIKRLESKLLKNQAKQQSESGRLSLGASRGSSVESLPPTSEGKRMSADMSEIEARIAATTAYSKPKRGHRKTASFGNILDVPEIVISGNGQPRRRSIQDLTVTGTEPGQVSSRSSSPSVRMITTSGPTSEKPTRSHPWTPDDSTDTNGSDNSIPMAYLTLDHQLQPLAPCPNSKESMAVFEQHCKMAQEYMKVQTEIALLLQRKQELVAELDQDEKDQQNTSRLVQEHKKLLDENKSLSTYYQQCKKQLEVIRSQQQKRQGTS

[2] = target: Serine/threonine-protein kinase Nek11 (Homo sapiens) (UniProt Q8NG66); details: Compound concentration 1000.0 nM
[3] = tested on: Tyrosine-protein kinase ABL1 (Homo sapiens), P00519 [F317L]; details: Compound concentration 1000.0 nM
[4] = target: Ribosomal protein S6 kinase alpha-4 (Homo sapiens) (UniProt O75676); details: Compound concentration 1000.0 nM
[5] = target: Receptor-type tyrosine-protein kinase FLT3 (Homo sapiens) (UniProt P36888); details: Compound concentration 1000.0 nM
[6] = target: Dual specificity mitogen-activated protein kinase kinase 5 (Homo sapiens) (UniProt Q13163); details: Compound concentration 1000.0 nM
Sequence of Dual specificity mitogen-activated protein kinase kinase 5 (Homo sapiens) (Q13163 whole entry): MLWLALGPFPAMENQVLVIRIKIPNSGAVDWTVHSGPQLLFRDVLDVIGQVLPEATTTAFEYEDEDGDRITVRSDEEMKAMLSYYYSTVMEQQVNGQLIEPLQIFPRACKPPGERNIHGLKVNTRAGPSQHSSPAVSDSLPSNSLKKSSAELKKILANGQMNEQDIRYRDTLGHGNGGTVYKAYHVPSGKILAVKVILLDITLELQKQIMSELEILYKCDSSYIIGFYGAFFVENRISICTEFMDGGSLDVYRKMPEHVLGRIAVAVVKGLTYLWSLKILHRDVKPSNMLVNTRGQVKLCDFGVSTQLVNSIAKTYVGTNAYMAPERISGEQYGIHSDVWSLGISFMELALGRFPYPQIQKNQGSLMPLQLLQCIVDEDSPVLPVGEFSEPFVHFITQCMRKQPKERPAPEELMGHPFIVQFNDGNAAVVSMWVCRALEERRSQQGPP

[7] = target: Aurora kinase B (Homo sapiens) (UniProt Q96GD4); details: Compound concentration 1000.0 nM
[8] = target: Maternal embryonic leucine zipper kinase (Homo sapiens) (UniProt Q14680); details: Compound concentration 1000.0 nM
[9] = tested on: Serine/threonine-protein kinase B-raf (Homo sapiens), P15056 [V600E]; details: Compound concentration 1000.0 nM
[10] = target: Activin receptor type-2A (Homo sapiens) (UniProt P27037); details: Compound concentration 1000.0 nM
[11] = target: Phosphatidylinositol 4,5-bisphosphate 3-kinase catalytic subunit beta isoform (Homo sapiens) (UniProt P42338); details: Compound concentration 1000.0 nM
[12] = tested on: Receptor-type tyrosine-protein kinase FLT3 (Homo sapiens), P36888 [D835V]; details: Compound concentration 1000.0 nM
[13] = target: Mitotic checkpoint serine/threonine-protein kinase BUB1 (Homo sapiens) (UniProt O43683); details: Compound concentration 1000.0 nM
[14] = target: Serine/threonine-protein kinase 32C (Homo sapiens) (UniProt Q86UX6); details: Compound concentration 1000.0 nM
[15] = target: Beta-2 adrenergic receptor (Homo sapiens) (UniProt P07550); details: Compound concentration 10.0 uM
[16] = target: T2, D(4) dopamine receptor (Homo sapiens) (UniProt P21917); details: Compound concentration 10.0 uM
T2 sequence (whole entry): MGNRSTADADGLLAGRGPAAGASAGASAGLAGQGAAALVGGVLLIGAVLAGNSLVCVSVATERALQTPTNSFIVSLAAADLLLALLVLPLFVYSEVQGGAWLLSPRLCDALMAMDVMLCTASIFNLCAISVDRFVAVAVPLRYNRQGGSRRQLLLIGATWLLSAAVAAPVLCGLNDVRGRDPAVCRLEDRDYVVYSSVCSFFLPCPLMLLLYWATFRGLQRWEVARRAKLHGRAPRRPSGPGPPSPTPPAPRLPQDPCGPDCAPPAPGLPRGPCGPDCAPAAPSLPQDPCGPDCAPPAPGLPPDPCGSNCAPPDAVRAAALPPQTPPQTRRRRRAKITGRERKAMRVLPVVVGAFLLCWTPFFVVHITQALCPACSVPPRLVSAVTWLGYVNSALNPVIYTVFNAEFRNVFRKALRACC

[17] = target: Hepatocyte growth factor receptor (Homo sapiens) (UniProt P08581); details: Compound concentration 1000.0 nM
[18] = target: Glycogen synthase kinase-3 alpha (Homo sapiens) (UniProt P49840); details: Compound concentration 1000.0 nM
Sequence of Glycogen synthase kinase-3 alpha (Homo sapiens) (P49840 2-483 limits assumed): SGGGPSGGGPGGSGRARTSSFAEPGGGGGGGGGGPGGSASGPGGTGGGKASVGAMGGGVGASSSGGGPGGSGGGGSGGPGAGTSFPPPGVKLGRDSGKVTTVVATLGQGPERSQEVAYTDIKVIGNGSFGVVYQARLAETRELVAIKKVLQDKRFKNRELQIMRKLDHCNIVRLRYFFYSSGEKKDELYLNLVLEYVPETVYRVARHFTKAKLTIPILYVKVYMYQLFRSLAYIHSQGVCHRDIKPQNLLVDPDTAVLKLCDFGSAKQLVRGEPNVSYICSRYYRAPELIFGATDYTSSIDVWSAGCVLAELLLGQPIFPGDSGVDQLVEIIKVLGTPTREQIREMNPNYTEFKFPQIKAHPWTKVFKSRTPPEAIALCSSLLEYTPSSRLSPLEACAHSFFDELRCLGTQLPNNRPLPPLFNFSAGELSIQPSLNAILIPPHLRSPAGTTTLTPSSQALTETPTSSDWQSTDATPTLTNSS

[19] = target: Serine/threonine-protein kinase TAO1 (Homo sapiens) (UniProt Q7L7X3); details: Compound concentration 1000.0 nM
[20] = target: Sodium-dependent serotonin transporter (Homo sapiens) (UniProt P31645); details: Compound concentration 10.0 uM
[21] = target: Proto-oncogene tyrosine-protein kinase receptor Ret (Homo sapiens) (UniProt P07949); details: Compound concentration 1000.0 nM
[22] = target: Activated CDC42 kinase 1 (Homo sapiens) (UniProt Q07912); details: Compound concentration 1000.0 nM
Sequence of Activated CDC42 kinase 1 (Homo sapiens) (Q07912 whole entry, looked up): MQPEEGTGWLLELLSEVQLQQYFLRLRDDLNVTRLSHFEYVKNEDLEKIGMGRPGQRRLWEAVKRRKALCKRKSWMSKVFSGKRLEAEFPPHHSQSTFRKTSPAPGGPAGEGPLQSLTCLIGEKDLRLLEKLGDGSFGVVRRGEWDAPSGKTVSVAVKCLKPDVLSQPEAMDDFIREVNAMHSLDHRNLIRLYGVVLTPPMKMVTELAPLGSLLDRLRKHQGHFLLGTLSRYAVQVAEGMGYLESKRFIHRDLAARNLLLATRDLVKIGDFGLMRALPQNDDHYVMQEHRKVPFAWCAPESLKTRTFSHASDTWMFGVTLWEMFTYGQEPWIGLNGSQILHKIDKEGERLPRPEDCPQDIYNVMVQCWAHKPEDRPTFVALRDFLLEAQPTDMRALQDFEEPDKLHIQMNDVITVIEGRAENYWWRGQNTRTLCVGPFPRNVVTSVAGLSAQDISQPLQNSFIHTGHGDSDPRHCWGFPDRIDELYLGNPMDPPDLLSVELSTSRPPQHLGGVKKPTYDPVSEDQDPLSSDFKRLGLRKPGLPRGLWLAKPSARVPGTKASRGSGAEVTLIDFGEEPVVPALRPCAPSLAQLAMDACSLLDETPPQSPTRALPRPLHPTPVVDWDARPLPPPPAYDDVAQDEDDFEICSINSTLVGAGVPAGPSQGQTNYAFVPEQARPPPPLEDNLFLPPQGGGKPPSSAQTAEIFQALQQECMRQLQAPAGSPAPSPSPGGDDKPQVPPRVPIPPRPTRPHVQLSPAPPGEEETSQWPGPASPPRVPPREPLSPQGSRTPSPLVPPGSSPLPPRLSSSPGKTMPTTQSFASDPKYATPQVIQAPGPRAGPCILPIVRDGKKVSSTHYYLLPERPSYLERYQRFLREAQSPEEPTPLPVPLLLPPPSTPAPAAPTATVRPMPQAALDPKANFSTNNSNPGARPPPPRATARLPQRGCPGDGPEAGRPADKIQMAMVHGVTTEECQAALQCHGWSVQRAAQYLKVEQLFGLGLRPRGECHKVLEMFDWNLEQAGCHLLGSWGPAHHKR

[23] = tested on: Epidermal growth factor receptor (Homo sapiens), P00533 [UNDEFINED MUTATION]; details: Compound concentration 1000.0 nM
Sequence of Epidermal growth factor receptor (Homo sapiens), P00533 [UNDEFINED MUTATION] (P00533 whole entry, looked up, change not shown): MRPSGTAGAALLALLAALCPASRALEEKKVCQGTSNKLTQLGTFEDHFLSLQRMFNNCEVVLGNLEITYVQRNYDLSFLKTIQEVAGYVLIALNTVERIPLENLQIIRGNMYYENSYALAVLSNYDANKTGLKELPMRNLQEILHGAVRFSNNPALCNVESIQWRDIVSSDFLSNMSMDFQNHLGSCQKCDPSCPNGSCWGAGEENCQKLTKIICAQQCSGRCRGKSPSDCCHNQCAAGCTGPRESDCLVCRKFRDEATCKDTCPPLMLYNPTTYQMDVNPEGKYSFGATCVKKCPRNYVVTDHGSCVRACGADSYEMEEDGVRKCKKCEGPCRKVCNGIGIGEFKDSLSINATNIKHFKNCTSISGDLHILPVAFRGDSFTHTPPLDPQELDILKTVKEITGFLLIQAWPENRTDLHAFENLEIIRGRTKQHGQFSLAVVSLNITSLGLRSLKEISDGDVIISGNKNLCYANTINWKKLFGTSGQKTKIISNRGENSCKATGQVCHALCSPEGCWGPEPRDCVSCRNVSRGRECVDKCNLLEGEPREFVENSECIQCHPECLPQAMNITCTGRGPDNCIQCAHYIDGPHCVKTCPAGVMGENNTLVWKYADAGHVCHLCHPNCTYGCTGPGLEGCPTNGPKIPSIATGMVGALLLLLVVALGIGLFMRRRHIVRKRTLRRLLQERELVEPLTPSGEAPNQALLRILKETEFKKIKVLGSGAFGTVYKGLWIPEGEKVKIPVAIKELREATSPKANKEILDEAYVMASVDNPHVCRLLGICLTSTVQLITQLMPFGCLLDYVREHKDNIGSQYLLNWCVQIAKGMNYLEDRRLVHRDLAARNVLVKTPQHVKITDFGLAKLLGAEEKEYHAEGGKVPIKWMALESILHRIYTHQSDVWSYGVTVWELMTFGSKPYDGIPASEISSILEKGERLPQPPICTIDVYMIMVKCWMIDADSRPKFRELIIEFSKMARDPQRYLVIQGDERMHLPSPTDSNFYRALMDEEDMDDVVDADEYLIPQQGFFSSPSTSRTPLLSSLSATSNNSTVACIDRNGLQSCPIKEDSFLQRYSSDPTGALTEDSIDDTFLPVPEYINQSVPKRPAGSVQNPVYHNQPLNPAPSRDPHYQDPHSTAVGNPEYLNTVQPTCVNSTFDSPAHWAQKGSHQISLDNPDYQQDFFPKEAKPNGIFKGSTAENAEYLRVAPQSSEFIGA

[24] = target: Cyclin-dependent kinase 4 (Homo sapiens) (UniProt P11802); details: Compound concentration 1000.0 nM
[25] = target: Atypical kinase COQ8A, mitochondrial (Homo sapiens) (UniProt Q8NI60); details: Compound concentration 1000.0 nM
[26] = target: Non-receptor tyrosine-protein kinase TYK2 (Homo sapiens) (UniProt P29597); details: Compound concentration 1000.0 nM
Sequence of Non-receptor tyrosine-protein kinase TYK2 (Homo sapiens) (P29597 whole entry): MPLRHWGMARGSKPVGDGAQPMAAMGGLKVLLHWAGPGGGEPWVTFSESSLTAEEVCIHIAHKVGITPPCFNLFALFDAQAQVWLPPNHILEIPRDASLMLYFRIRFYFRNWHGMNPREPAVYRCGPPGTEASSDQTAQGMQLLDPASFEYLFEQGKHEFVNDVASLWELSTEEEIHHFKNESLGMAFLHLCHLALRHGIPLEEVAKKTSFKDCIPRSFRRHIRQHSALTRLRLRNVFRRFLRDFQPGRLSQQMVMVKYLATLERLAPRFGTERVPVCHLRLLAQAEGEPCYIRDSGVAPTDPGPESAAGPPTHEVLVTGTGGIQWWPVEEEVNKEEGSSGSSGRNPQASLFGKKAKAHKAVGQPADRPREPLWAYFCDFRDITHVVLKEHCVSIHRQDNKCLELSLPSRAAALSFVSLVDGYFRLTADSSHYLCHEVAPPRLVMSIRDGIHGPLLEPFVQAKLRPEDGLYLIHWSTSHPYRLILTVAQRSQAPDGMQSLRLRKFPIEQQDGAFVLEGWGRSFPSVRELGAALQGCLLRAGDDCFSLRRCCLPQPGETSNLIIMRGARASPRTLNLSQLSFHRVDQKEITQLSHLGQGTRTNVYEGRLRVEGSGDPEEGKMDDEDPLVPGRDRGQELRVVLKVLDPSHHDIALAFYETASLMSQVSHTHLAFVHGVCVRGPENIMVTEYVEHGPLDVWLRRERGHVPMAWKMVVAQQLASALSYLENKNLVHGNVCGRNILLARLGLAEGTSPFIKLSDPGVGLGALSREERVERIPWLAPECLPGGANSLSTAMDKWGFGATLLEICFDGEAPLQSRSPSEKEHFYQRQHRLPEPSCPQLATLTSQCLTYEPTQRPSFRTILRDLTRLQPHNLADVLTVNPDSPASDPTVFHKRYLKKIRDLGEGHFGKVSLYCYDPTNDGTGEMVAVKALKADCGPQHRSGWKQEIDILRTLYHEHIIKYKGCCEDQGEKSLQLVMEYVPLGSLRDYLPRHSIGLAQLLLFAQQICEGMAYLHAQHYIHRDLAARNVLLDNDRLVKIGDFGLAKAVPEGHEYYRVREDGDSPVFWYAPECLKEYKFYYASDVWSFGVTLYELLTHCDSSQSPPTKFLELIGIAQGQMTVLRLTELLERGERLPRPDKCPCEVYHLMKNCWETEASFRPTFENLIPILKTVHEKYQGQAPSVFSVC

[27] = target: Serine/threonine-protein kinase 35 (Homo sapiens) (UniProt Q8TDR2); details: Compound concentration 1000.0 nM
[28] = target: Casein kinase I isoform gamma-2 (Homo sapiens) (UniProt P78368); details: Compound concentration 1000.0 nM
Sequence of Casein kinase I isoform gamma-2 (Homo sapiens) (P78368 whole entry, looked up, canonical isoform): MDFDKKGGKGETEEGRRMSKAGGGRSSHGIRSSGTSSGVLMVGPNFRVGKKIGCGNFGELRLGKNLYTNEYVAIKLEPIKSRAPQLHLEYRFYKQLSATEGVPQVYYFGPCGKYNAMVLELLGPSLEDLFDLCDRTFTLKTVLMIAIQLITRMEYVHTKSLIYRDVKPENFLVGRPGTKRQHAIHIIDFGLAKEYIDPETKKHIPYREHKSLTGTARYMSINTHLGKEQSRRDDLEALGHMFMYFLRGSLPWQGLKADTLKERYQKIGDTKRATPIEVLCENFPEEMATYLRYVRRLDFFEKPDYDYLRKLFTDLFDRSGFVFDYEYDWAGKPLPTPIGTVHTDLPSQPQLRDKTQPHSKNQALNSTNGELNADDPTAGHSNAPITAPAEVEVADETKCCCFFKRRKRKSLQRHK

[29] = target: Ephrin type-A receptor 6 (Homo sapiens) (UniProt Q9UF33); details: Compound concentration 1000.0 nM
[30] = target: Vascular endothelial growth factor receptor 3 (Homo sapiens) (UniProt P35916); details: Compound concentration 1000.0 nM
[31] = tested on: Receptor-type tyrosine-protein kinase FLT3 (Homo sapiens), P36888 [K663Q]; details: Compound concentration 1000.0 nM

Question: For CN(C)C(=O)Cn1cc(-c2nc(C3(c4ccc(-c5cnc(N)nc5)cc4)CC3)no2)cn1 [BI 0153], which residual activity [1] is on record?
Answer: Its residual activity is 72%.

Question: And the residual activity [2]?
Answer: The residual activity was 90%.

Question: And the residual activity [3]?
Answer: The residual activity was 85%.

Question: And the residual activity [4]?
Answer: Its residual activity is 86%.

Question: What about the residual activity [5] of the same compound?
Answer: Its residual activity is 90%.

Question: And the residual activity [6]?
Answer: Its residual activity is 72%.

Question: What about the residual activity [7] of the same compound?
Answer: The residual activity was 41%.

Question: And the residual activity [8]?
Answer: The residual activity was 92%.

Question: What about the residual activity [9] of the same compound?
Answer: The residual activity was 87%.

Question: What about the residual activity [10] of the same compound?
Answer: The residual activity was 84%.

Question: And the residual activity [11]?
Answer: Its residual activity is 96%.

Question: What about the residual activity [12] of the same compound?
Answer: Its residual activity is 49%.

Question: What about the residual activity [13] of the same compound?
Answer: The residual activity was 75%.

Question: What about the residual activity [14] of the same compound?
Answer: Its residual activity is 100%.

Question: And the inhibition [15]?
Answer: The inhibition was 3.55%.

Question: And the inhibition [16]?
Answer: The inhibition was 1.18%.

Question: What about the residual activity [17] of the same compound?
Answer: The residual activity was 73%.

Question: What about the residual activity [18] of the same compound?
Answer: The residual activity was 100%.

Question: What about the residual activity [19] of the same compound?
Answer: The residual activity was 86%.

Question: What about the inhibition [20] of the same compound?
Answer: Its inhibition is 5.35%.

Question: What about the residual activity [21] of the same compound?
Answer: The residual activity was 94%.

Question: And the residual activity [22]?
Answer: The residual activity was 96%.

Question: And the residual activity [23]?
Answer: Its residual activity is 100%.

Question: What about the residual activity [24] of the same compound?
Answer: Its residual activity is 100%.

Question: And the residual activity [25]?
Answer: Its residual activity is 99%.

Question: And the residual activity [26]?
Answer: Its residual activity is 90%.

Question: What about the residual activity [27] of the same compound?
Answer: Its residual activity is 94%.

Question: And the residual activity [28]?
Answer: The residual activity was 82%.

Question: What about the residual activity [29] of the same compound?
Answer: The residual activity was 99%.

Question: What about the residual activity [30] of the same compound?
Answer: Its residual activity is 95%.

Question: And the residual activity [31]?
Answer: The residual activity was 100%.

Question: For CN(C)C(=O)Cn1cc(-c2nc([C@@](C)(c3ccc(-c4cnc(N)nc4)cc3)C3CC3)no2)cn1 [BI 665915], which residual activity [1] is on record?
Answer: The residual activity was 50%.

Question: What about the residual activity [2] of the same compound?
Answer: Its residual activity is 100%.

Question: And the residual activity [3]?
Answer: Its residual activity is 88%.

Question: And the residual activity [4]?
Answer: Its residual activity is 72%.

Question: And the residual activity [5]?
Answer: The residual activity was 97%.

Question: What about the residual activity [6] of the same compound?
Answer: Its residual activity is 62%.

Question: What about the residual activity [7] of the same compound?
Answer: The residual activity was 96%.

Question: And the residual activity [8]?
Answer: The residual activity was 87%.

Question: And the residual activity [9]?
Answer: The residual activity was 89%.

Question: And the residual activity [10]?
Answer: Its residual activity is 81%.

Question: And the residual activity [11]?
Answer: Its residual activity is 100%.

Question: And the residual activity [12]?
Answer: The residual activity was 72%.

Question: What about the residual activity [13] of the same compound?
Answer: The residual activity was 75%.

Question: What about the residual activity [14] of the same compound?
Answer: Its residual activity is 88%.

Question: What about the inhibition [15] of the same compound?
Answer: Its inhibition is 0.497%.

Question: What about the inhibition [16] of the same compound?
Answer: The inhibition was 1.48%.

Question: And the residual activity [17]?
Answer: Its residual activity is 100%.

Question: What about the residual activity [18] of the same compound?
Answer: The residual activity was 100%.

Question: What about the residual activity [19] of the same compound?
Answer: The residual activity was 75%.

Question: What about the inhibition [20] of the same compound?
Answer: Its inhibition is 6.28%.

Question: What about the residual activity [21] of the same compound?
Answer: Its residual activity is 94%.

Question: What about the residual activity [22] of the same compound?
Answer: Its residual activity is 91%.

Question: And the residual activity [23]?
Answer: The residual activity was 100%.

Question: What about the residual activity [24] of the same compound?
Answer: The residual activity was 94%.

Question: And the residual activity [25]?
Answer: The residual activity was 100%.

Question: What about the residual activity [26] of the same compound?
Answer: Its residual activity is 65%.

Question: What about the residual activity [27] of the same compound?
Answer: Its residual activity is 88%.

Question: What about the residual activity [28] of the same compound?
Answer: The residual activity was 100%.

Question: What about the residual activity [29] of the same compound?
Answer: The residual activity was 100%.

Question: What about the residual activity [30] of the same compound?
Answer: Its residual activity is 88%.

Question: And the residual activity [31]?
Answer: Its residual activity is 94%.
